Key:
E. coli = assay: Bacteriocidal activity tests of colloidal disinfectant mix at low/intermediate/high FAC, E. coli; format: cell-based, Escherichia coli; conditions: 200-300 ppm FAC in viscous post-dip solutions; 30 seconds
Experimental: (§1) FIG. 4 is an illustration of a test for bacteriocidal activity.
(§2) Colloid-based disinfectant mixing procedures were established as follows. Step 1—Mix 2 g GA into 90 mL of water, leave with constant slow mixing for 1 hour. Step 2—Generate chlorine-based oxidant by salt brine electrolysis. Measure FAC concentration by the Hach DPD technique. Step 3—Dilute free chlorine solution from fresh electrolyzed brine solution. Final FAC concentration to be 200 ppm or 300 ppm. Step 4—Add 1 g of pure lanolin (with no additives), fill up the volume to 100 mL. Mix with slow stirring or on a rotary carousel for another hour. If needed, add Brilliant Blue (food-grade) dye during the last mixing. Ready. Store at ambient temperature for up to 48 hours or 72 hours.
(§3) Also, 400 ppm FAC in the disinfectant colloid mix causes 7-log inactivation of E. coli, and 200 ppm FAC is sufficient for 6-log inactivation of S. aures. Higher FAC concentrations can be useful in pre-dip solutions for teat wash. 200-300 ppm FAC, which holds for a long time upon storage, can be sufficient for post-dip solutions. Note that the tests were performed under controlled laboratory conditions. Field test data might support the data, or might indicate that higher FAC concentrations are necessary.

E. coli cells = conditions: 100 ppm hypochlorite applied for 1 min.; cited from earlier work
S. aures = assay: Bacteriocidal activity tests of colloidal disinfectant mix at low/intermediate/high FAC, S. aureus; format: cell-based, Staphylococcus aureus; conditions: 200-300 ppm FAC in viscous post-dip solutions; 30 seconds
Experimental: as §1, §2, §3

OCl [sodium hypochlorite]
log inactivation of Escherichia coli (E. coli): 6 log
E. coli cells killed (E. coli cells): 10^6 cells
log inactivation of Staphylococcus aureus (S. aures): 6 log

Source: US20160015036A1, “Methods and apparatuses related to pre- and post-dip teat treatment in milking facilities” (Aqua Access LLC, priority 2013, published 2016)
